Our source for the EC50 and Ki values is patent US20240058450A1, “BCL-XL Inhibitory Compounds Having Low Cell Permeability and Antibody Drug Conjugates Including the Same” (AbbVie Inc., priority 2014, published 2024).

Read-outs that look alike come from different tables or passages of the source.

Broadly, the Ki is a dissociation constant, usually derived from enzyme kinetics or from competition with a known ligand.

For experiment [1], the system named is Molt-4 human acute lymphoblastic leukemia cells. Nature of the experiment: Molt-4 cell viability assay (CellTiter-Glo, 48 hours, 10% HS). In kind it is cell-based. The conditions noted are these: non-permeabilized cells. In outline: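 Cells were seeded at 12,500 per well in medium with 10% human serum and exposed to a 3-fold compound dilution series from 10 μM to 0.0005 μM. After 48 h, viable cells were quantified by CellTiter-Glo luminescence. Each concentration was run in duplicate on at least 3 occasions.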

For another experiment, the target named is Bcl-xL (Homo sapiens, UniProt Q07817). In words: Time Resolved-Fluorescence Resonance Energy Transfer (TR-FRET) binding assay, competition with probe F-Bak. In outline: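 TR-FRET binding assay run at room temperature for 2 h after mixing compound with Bcl-xL protein, F-Bak probe and Tb-labelled antibody. Test compounds diluted from a 2× 50 μM stock. Ki values derived via Wang's equation from 520/495 nm emission under 340 nm excitation, in the absence of serum or with 1% HS.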
Sequence of Bcl-xL (Q07817 whole entry): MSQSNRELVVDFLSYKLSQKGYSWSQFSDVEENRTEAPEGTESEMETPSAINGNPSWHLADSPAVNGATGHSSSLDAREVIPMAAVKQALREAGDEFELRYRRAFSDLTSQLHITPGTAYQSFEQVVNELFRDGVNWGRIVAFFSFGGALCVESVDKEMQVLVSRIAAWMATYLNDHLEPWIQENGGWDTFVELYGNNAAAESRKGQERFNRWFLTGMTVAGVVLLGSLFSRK
In general terms: In TR-FRET formats the signal depends on donor and acceptor labels being close together.

The subject of experiment [2] is permeabilized Bcl-xL dependent Molt-4 cells. In words: Cytochrome C release in selectively (digitonin) permeabilized Molt-4 cells. Type of experiment: cell-based, human. The following applies: 4 h treatment, read-out: Molt-4 Permeabilized Cyt C Release. The source says:
The permeabilization of the mitochondrial outer membrane to release proteins from the intermembrane space into the cytosol is a pivotal event in the process of apoptosis. Specifically, the release of cytochrome C triggers the formation of the apoptosome which, in turn, results in caspase activation and other events that will commit the cell to undergo programmed cell death (Goldstein el al., 2005, Cell Death and Differentiation 12:453). The process of mitochondrial outer membrane permeabilization (MOMP) is controlled by the Bcl-2 family members. It is promoted by the multidomain pro-apoptotic proteins Bax and Bak which, upon activation, oligomerize on the outer mitochondrial membrane and form pores to ultimately release cytochrome C. This action is antagonized by the antiapoptotic members, including Bcl-2 and Bcl-xL. Compounds that are capable of inhibiting Bcl-2 or Bcl-xL, for example, in cells that depend upon these proteins for survival, can cause activation of Bax and or Bak, MOMP, release of cytochrome C and the mentioned downstream steps in the apoptotic process. This process of cytochrome C release can be measured in cells via Western blot of both mitochrondrial and cytosolic fractions, and can be used a proxy measurement of apoptosis in cells.
As a means of detecting the ability of a Bcl-xL inhibitor with low cell-permeability to cause release of cytochrome C, the cells can be treated with an agent that causes selective pore formation in the plasma membrane, but not the mitochondrial membrane. Specifically, the cholesterol/phospholipid ratio is much higher in the plasma membrane than the mitochondrial membrane. […] This agent forms insoluble complexes with cholesterol leading to the segregation of cholesterol from its normal phospholipid binding sites. This action, in turn, leads to the formation of holes about 40-50 Å wide in the lipid bilayer. Once the plasma membrane is permeabilized, cytosolic components able to pass over digitonin-formed holes can be washed out, including the cytochrome C that was released from mitochondria to cytosol in the apoptotic cells ((Campos, 2006, Cytometry A 69(6):515-523)).
To determine if Bcl-xL inhibitors were inducing cell death through apoptosis, cytochrome C release was measured in Bcl-xL dependent Molt-4 cells following treatment Specifically, 1×10^6 cells were treated for 4 h (37° C., 5% CO2) with the test compounds in half-log dilutions starting at 3.0 μM and ending at 0.01 μM. Cells were then processed as described in Chen et al., 2011, Mol. Cancer Ther. 10:2340-2350 (the Bcl-2/Bcl-X(L)/Bcl-w inhibitor, navitoclax, enhances the activity of chemotherapeutic agents in vitro and in vivo.).

Setting [3] is: in the presence of 1% HS, read-out: Bcl-xL Binding Ki (nM, 1% HS).
The mark [4] stands for this setting: without HS, read-out: Bcl-xL Binding Ki.

Turning to `Cc1c(-c2ccc(N3CCc4cccc(C(=O)Nc5nc6ccccc6s5)c4C3)nc2C(=O)O)cnn1CC12CC3(C)CC(C)(C1)CC(OCCNCCCS(=O)(=O)O)(C3)C2` [Example 1.5, 6-[8-(1,3-benzothiazol-2-ylcarbamoyl)-3,4-dihydroisoquinolin-2 (1H)-yl]-3-{1-[(3,5-dimethyl-7-{2-[(3-sulfopropyl)amino]ethoxy}tricyclo[3.3.1.1^3,7]dec-1-yl)methyl]-5-methyl-1H-pyrazol-4-yl}pyridine-2-carboxylic acid], the EC50 in experiment [1] (Homo sapiens, MOLT-4, 48 h) was 189 nM; in experiment [2] (Homo sapiens, MOLT-4, 4 h), 0.5 to 1 nM. For the same compound, the values for the Ki on Bcl-xL (setting [3]) and at Bcl-xL (setting [4]) were 0.26 nM and 0.019 nM, respectively.

On to `Cc1c(-c2ccc(N3CCc4cccc(C(=O)Nc5nc6ccccc6s5)c4C3)nc2C(=O)O)cnn1CC12CC3(C)CC(C)(C1)CC(OCCOCCNCc1ccc(O[C@@H]4O[C@H](CO)[C@@H](O)[C@@H](O)[C@H]4O)cc1)(C3)C2` [Example 1.10, 3-[1-({3-[2-(2-{[4-(beta-D-allopyranosyloxy)benzyl]amino}ethoxy)ethoxy]-5,7-dimethyltricyclo[3.3.1.1^3,7]dec-1-yl}methyl)-5-methyl-1H-pyrazol-4-yl]-6-[8-(1,3-benzothiazol-2-ylcarbamoyl)-3,4-dihydroisoquinolin-2 (1H)-yl]pyridine-2-carboxylic acid], for which the EC50 in experiment [1] (Homo sapiens, MOLT-4, 48 h) was 74 nM; in experiment [2] (Homo sapiens, MOLT-4, 4 h), below 0.5 nM. Besides, the Ki was 0.027 nM at Bcl-xL (setting [3]) and below 0.001 nM at Bcl-xL (setting [4]).

As for `Cc1c(-c2ccc(N3CCc4cccc(C(=O)Nc5nc6ccccc6s5)c4C3)nc2C(=O)O)cnn1CC12CC3(C)CC(C)(C1)CC(OCCOCCNCCS(=O)(=O)O)(C3)C2` [Example 1.11, 6-[8-(1,3-benzothiazol-2-ylcarbamoyl)-3,4-dihydroisoquinolin-2 (1H)-yl]-3-(1-{[3,5-dimethyl-7-(2-{2-[(2-sulfoethyl)amino]ethoxy}ethoxy)tricyclo[3.3.1.1^3,7]dec-1-yl]methyl}-5-methyl-1H-pyrazol-4-yl}pyridine-2-carboxylic acid], the EC50 in experiment [1] (Homo sapiens, MOLT-4, 48 h) was 63 nM; in experiment [2] (Homo sapiens, MOLT-4, 4 h), below 0.5 nM. Besides, the Ki at Bcl-xL (setting [3]) was 0.17 nM; at Bcl-xL (setting [4]), below 0.001 nM.

In the case of `Cc1c(-c2ccc(N3CCc4cccc(C(=O)Nc5nc6ccccc6s5)c4C3)nc2C(=O)O)cnn1CC12CC3(C)CC(C)(C1)CC(OCCNCCP(=O)(O)O)(C3)C2` [Example 1.12, 6-[8-(1,3-benzothiazol-2-ylcarbamoyl)-3,4-dihydroisoquinolin-2 (1H)-yl]-3-{1-[(3,5-dimethyl-7-{2-[(2-phosphonoethyl)amino]ethoxy}tricyclo[3.3.1.1^3,7]dec-1-yl)methyl]-5-methyl-1H-pyrazol-4-yl}pyridine-2-carboxylic acid], the EC50 is 389 nM in experiment [1] (Homo sapiens, MOLT-4, 48 h) and below 0.5 nM in experiment [2] (Homo sapiens, MOLT-4, 4 h). For the same compound, the Ki on Bcl-xL (setting [3]) was 0.08 nM; at Bcl-xL (setting [4]), below 0.001 nM.

As to `Cc1c(-c2ccc(N3CCc4cccc(C(=O)Nc5nc6ccccc6s5)c4C3)nc2C(=O)O)cnn1CC12CC3(C)CC(C)(C1)CC(OCCN(C)C(=O)[C@@H](N)CS(=O)(=O)O)(C3)C2` [Example 1.13, 6-[8-(1,3-benzothiazol-2-ylcarbamoyl)-3,4-dihydroisoquinolin-2 (1H)-yl]-3-{1-[(3,5-dimethyl-7-{2-[methyl(3-sulfo-L-alanyl)amino]ethoxy}tricyclo[3.3.1.1^3,7]dec-1-yl)methyl]-5-methyl-1H-pyrazol-4-yl}pyridine-2-carboxylic acid], the EC50 in experiment [1] (Homo sapiens, MOLT-4, 48 h) was 257 nM; in experiment [2] (Homo sapiens, MOLT-4, 4 h), below 0.5 nM. Also, the Ki on Bcl-xL (setting [3]) was 0.2 nM; at Bcl-xL (setting [4]), below 0.001 nM.

For the compound `Cc1c(-c2ccc(N3CCc4cccc(C(=O)Nc5nc6ccccc6s5)c4C3)nc2C(=O)O)cnn1CC12CC3(C)CC(C)(C1)CC(OCCNCCCP(=O)(O)O)(C3)C2` [Example 1.14, 6-[8-(1,3-benzothiazol-2-ylcarbamoyl)-3,4-dihydroisoquinolin-2 (1H)-yl]-3-{1-[(3,5-dimethyl-7-{2-[(3-phosphonopropyl)amino]ethoxy)tricyclo[3.3.1.1^3,7]dec-1-yl)methyl]-5-methyl-1H-pyrazol-4-yl}pyridine-2-carboxylic acid], the EC50 in experiment [1] (Homo sapiens, MOLT-4, 48 h) was 415 nM; in experiment [2] (Homo sapiens, MOLT-4, 4 h), below 0.5 nM. The results for the Ki on Bcl-xL (setting [3]) and on Bcl-xL (setting [4]) were 0.18 nM and below 0.001 nM, respectively.

With `Cc1c(-c2ccc(N3CCc4cccc(C(=O)Nc5nc6ccccc6s5)c4C3)nc2C(=O)O)cnn1CC12CC3(C)CC(C)(C1)CC(OCCNC(=O)[C@@H](N)CS(=O)(=O)O)(C3)C2` [Example 1.15, 6-[8-(1,3-benzothiazol-2-ylcarbamoyl)-3,4-dihydroisoquinolin-2 (1H)-yl]-3-{1-[(3,5-dimethyl-7-{2-[(3-sulfo-L-alanyl)amino]ethoxy}tricyclo[3.3.1.1^3,7]dec-1-yl)methyl]-5-methyl-1H-pyrazol-4-yl}pyridine-2-carboxylic acid], the EC50 is 663 nM in experiment [1] (Homo sapiens, MOLT-4, 48 h) and 1 to 5 nM in experiment [2] (Homo sapiens, MOLT-4, 4 h). The Ki came out at 0.39 nM on Bcl-xL (setting [3]) and 0.003 nM at Bcl-xL (setting [4]).

For the compound `Cc1c(-c2ccc(N3CCc4cccc(C(=O)Nc5nc6ccccc6s5)c4C3)nc2C(=O)O)cnn1CC12CC3(C)CC(C)(C1)CC(OCCN(CCOCCOCCN)Cc1ccc(CC4O[C@H](C(=O)O)[C@@H](O)[C@H](O)[C@H]4O)cc1)(C3)C2` (stereo partly drawn) [Example 1.18, 6-{4-[({2-[2-(2-aminoethoxy)ethoxy]ethyl}[2-({3-[(4-{6-[8-(1,3-benzothiazol-2-ylcarbamoyl)-3,4-dihydroisoquinolin-2 (1H)-yl]-2-carboxypyridin-3-yl}-5-methyl-1H-pyrazol-1-yl)methyl]-5,7-dimethyltricyclo[3.3.1.1^3,7]dec-1-yl}oxy)ethyl]amino)methyl]benzyl}-2,6-anhydro-L-gulonic acid], the EC50 in experiment [1] was 3330 nM; in experiment [2], below 0.5 nM; in experiment [2] (Homo sapiens, MOLT-4, 4 h), 1 to 5 nM. Further, the Ki on Bcl-xL (setting [3]) is 1.38 nM; on Bcl-xL (setting [4]), below 0.001 nM.

`Cc1c(-c2ccc(-c3ccc4c(c3)N(C(=O)Nc3nc5ccccc5s3)CCC4)nc2C(=O)O)cnn1CC12CC3(C)CC(C)(C1)CC(OCCNCCP(=O)(O)O)(C3)C2` [Example 1.20, 6-[1-(1,3-benzothiazol-2-ylcarbamoyl)-1,2,3,4-tetrahydroquinolin-7-yl]-3-{1-[(3,5-dimethyl-7-(2-[(2-phosphonoethyl)amino]ethoxy}tricyclo[3.3.1.1^3,7]dec-1-yl)methyl]-5-methyl-1H-pyrazol-4-yl}pyridine-2-carboxylic acid]: the EC50 in experiment [1] (Homo sapiens, MOLT-4, 48 h) is 774 nM; in experiment [2] (Homo sapiens, MOLT-4, 4 h), below 0.5 nM. Moreover, the inhibitory constant (Ki) at Bcl-xL (setting [3]) was 0.47 nM; on Bcl-xL (setting [4]) it was below 0.001 nM.

As for `Cc1c(-c2ccc(N3CCc4cccc(C(=O)Nc5nc6cccnc6s5)c4C3)nc2C(=O)O)cnn1CC12CC3(C)CC(C)(C1)CC(OCCNCCS(=O)(=O)O)(C3)C2` [Example 1.22, 3-{1-[(3,5-dimethyl-7-{2-[(2-sulfoethyl)amino]ethoxy}tricyclo[3.3.1.1^3,7]dec-1-yl)methyl]-5-methyl-1H-pyrazol-4-yl}-6-[8-([1,3]thiazolo[5,4-b]pyridin-2-ylcarbamoyl)-3,4-dihydroisoquinolin-2 (1H)-yl]pyridine-2-carboxylic acid], the EC50 was above 10000 nM in experiment [1] (Homo sapiens, MOLT-4, 48 h) and below 0.5 nM in experiment [2] (Homo sapiens, MOLT-4, 4 h). The Ki at Bcl-xL (setting [3]) amounted to 7.11 nM; on Bcl-xL (setting [4]) it was 0.006 nM.

For `Cc1c(-c2ccc(-c3ccc4c(c3)N(C(=O)Nc3nc5ccccc5s3)CCC4)nc2C(=O)O)cnn1CC12CC3(C)CC(C)(C1)CC(OCCNCCS(=O)(=O)O)(C3)C2` [Example 1.24, 6-[1-(1,3-benzothiazol-2-ylcarbamoyl)-1,2,3,4-tetrahydroquinolin-7-yl]-3-{1-[(3,5-dimethyl-7-{2-[(2-sulfoethyl)amino]ethoxy}tricyclo[3.3.1.1^3,7]dec-1-yl)methyl]-5-methyl-1H-pyrazol-4-yl}pyridine-2-carboxylic acid], the EC50 in experiment [1] (Homo sapiens, MOLT-4, 48 h) is 390 nM; in experiment [2] (Homo sapiens, MOLT-4, 4 h), below 0.5 nM. Further, the Ki on Bcl-xL (setting [3]) was 0.074 nM; at Bcl-xL (setting [4]), below 0.001 nM.
